The test system of data set [1] is BVDV (NADL strain). The class given is cell-based, Bovine viral diarrhea virus.
The next data set relates to MDBK cells. Description: Cytotoxicity (MTT) in MDBK cells. Format: cell-based. The procedure:
(§1) Compound toxicity assay. Compound cytotoxicity was assessed by using an MTT based toxicity assay kit (Sigma, St. Louis, Mo.) as described elsewhere. Briefly, cells cultured under conditions identical to those used in the viral assay were incubated with various concentrations of the compound for 72 hours. MTT was added to the media to a final concentration of 0.5 mg/ml and was incubated for 3 hours at 37 C. After the culture media was removed, formazan crystals was dissolved by adding 150 ul of solubilization solution (10% Triton X-100, 0.1N HCl in anhydrous isopropanol) for 15-30 minutes. The absorbance of the dissolved formazan was measured spectrophotometrically at 570 nm with absorbance at 690 nm as background.

For data set [2], the system named is Dengue virus (DV) serotype 2, New Guinea C. Description: microbe, parasite or virus in culture. The class given is cell-based.
Data set [3] is described as follows: Cytotoxicity (CC50) in the HCV infection test. Format: cell-based. The following applies: Table 3, HCV infection test.
The conditions of data set [4]: in vivo, po, 100 mg/kg.
Another data set concerns HCV. Description: HCV infection, intracellular HCV RNA level by real-time RT-PCR. The class given is cell-based, hepatitis C virus. As to conditions: for EC50: read-out: EC50 against HCV infection; for EC90: read-out: EC90 against HCV infection. The text has this:
Another embodiment of the present invention is the use of imino sugar glucosidase inhibitors in the treatment of HCV. Imino sugar glucosidase inhibitors show equal or better efficacy than celgosivir.
(Quantitative PCR measures a nucleic acid by following its amplification.)

For a further data set, the system named is Ebola (Zaire strain). The class given is cell-based, Ebola virus.
A further data set relates to BHK cells. Description: Cytotoxicity (MTT) in BHK cells. The class given is cell-based. The protocol:
as §1

In data set [5] the test system is Tacaribe virus (21573 strain). The class given is cell-based.
Data set [6] deals with Junin virus (JUNV, Romero strain). The class given is cell-based.
Data set [7] in a line: Cytotoxicity (MTT) in BHK cells. Format: cell-based. As to conditions: hamster; BHK cells (for Dengue and West Nile virus), 3 days treatment. The procedure: as §1
Data set [8] concerns West Nile virus (2002 Texas isolate). Kind of data set: microbe, parasite or virus in culture. Format: cell-based.
The subject of data set [9] is BVDV (NADL strain). As to conditions: tissue culture, test viruses such as BVDV and DV; cited from earlier work.
Setting [10] is: BHK cells (for Dengue and West Nile virus), 3 days treatment, read-out: CC50.
The mark [11] stands for this setting: Table 5, read-out: CC50 in BHK cells.

Like-named read-outs stand apart in the source and are kept apart here.

A word on the EC50: it is the midpoint of the concentration-response curve. For orientation: EC90 means the concentration needed for an effect of 90%. Usually CC50 stands for the concentration at which the toxic effect on the cells reaches its halfway point. With `CC(=O)O.OC[C@@H]1[C@@H](O)[C@H](O)[C@@H](O)CN1CCCCCCC1(O)CCCCC1` [CM-9-70], in the data set with BVDV (NADL strain) [1], the EC50 came out at 18 µM, the EC90 is 82.5 µM and the anti-BVDV activity entry is “retains similar antiviral activity”. The molecule further had a CC50 in the data set with MDBK cells above 500 µM.
On to `CC(=O)O.CC1CCC(OCCCCCCN2C[C@H](O)[C@@H](O)[C@H](O)[C@H]2CO)CC1` (stereo partly shown) [CM-9-78], for which the EC50 in data set [2] (read-out: DV EC50) came out at 6750 nM; in data set [2] (read-out: Dengue EC50), 6800 nM; in the data set with HCV, 5 µM; with Ebola (Zaire strain) it was 7.5 µM; in data set [5], 10000 nM; in data set [6], 2000 nM. In the data set with BVDV (NADL strain) [1], this molecule gave a 50% effective concentration (EC50) of 8.1 ± 3.4 µM. Further, the 90% effect concentration (EC90) in data set [2] (read-out: DV EC90) was 13000 nM; in data set [2] (read-out: Dengue EC90), 13000 nM; in the data set with HCV it was 160 µM; in the data set on Ebola (Zaire strain), above 100 µM; in data set [5], above 100 µM; in data set [6], above 100 µM. For the same molecule, the EC90 in the data set with BVDV (NADL strain) [1] came out at 59 ± 22 µM. Further, the CC50 is above 500 µM in data set [3]; above 500 µM in the data set on vero cells; above 100 µM in the data set with BHK cells (setting [10]); above 40 µM in the data set on BHK cells (setting [11]); above 500 µM with MDBK cells. The plasma concentration entry in data set [4] is given as “above 30 μM”.
Take `O[C@H]1[C@H](O)[C@@H](O)CN2CC[C@H](O)[C@H]12` [Castano., Castanospermin]: the CC50 in data set [3] is above 500 µM. For the same molecule, in the data set on HCV, the concentration for a half-maximal effect (EC50) was found to be 295 µM and the 90% effect concentration (EC90) was above 500 µM.
`CCCC(=O)O[C@H]1CN2CC[C@H](O)[C@@H]2[C@@H](O)[C@@H]1O` [Celgosivir, celgosivir] returned a CC50 in [3] above 500 µM. For the same molecule, in the data set with HCV (Hepatitis C virus), the concentration for a half-maximal effect (EC50) amounted to 3.8 µM and the 90% effect concentration (EC90) was 100 µM.
Take `OC[C@H]1NC[C@H](O)[C@@H](O)[C@@H]1O` [DNJ, deoxynojirimycin, reference compound]: the EC50 in [2] (Dengue virus, BHK, read-out: Dengue EC50) was 500000 nM; in data set [8] (West Nile virus, BHK, read-out: West Nile EC50) it was above 500 µM. This molecule yielded a CC50 at 72 h in [7] of 20 to 100 µM.
For `CCCCN1C[C@H](O)[C@@H](O)[C@H](O)[C@H]1CO` [NBDNJ, N-butyl-DNJ, reference compound], the CC50 in the data set on BHK cells (setting [10]) was 20 to 100 µM. The EC50 in data set [8] (read-out: West Nile EC50) was above 100 µM.
For `CCCCCCCCCN1C[C@H](O)[C@@H](O)[C@H](O)[C@H]1CO` [NNDNJ, N-nonyl-DNJ, reference compound], the EC50 is 1000 to 4000 nM in data set [2] (read-out: Dengue EC50); 2.5 µM in the data set with HCV; 12 µM with Ebola (Zaire strain); 3000 nM in data set [5]; 700 nM in data set [6]; 7.3 ± 0.4 µM with BVDV (NADL strain) [1]. Further, in data set [8] (read-out: West Nile EC50), the half-maximal effective concentration (EC50) is 4 µM. Moreover, the EC90 is 3000 to 10000 nM in data set [2] (read-out: Dengue EC90); above 500 µM in the data set on HCV; 85 µM in the data set with Ebola (Zaire strain); 70 µM in data set [5]; above 100 µM in [6]; 71 ± 7.1 µM with BVDV (NADL strain) [1]. The cytotoxic concentration (CC50) in data set [3] was 280 µM; in the data set on vero cells it was 100 µM; with BHK cells (setting [10]), 20 to 100 µM; in the data set with MDBK cells it was 245 ± 134 µM. Besides, the “potency compared with DNJ or short alkyl side chain DNJ derivatives such as NBDNJ” value in the data set with BVDV (NADL strain) [9] is 100 times.
On to `OC[C@@H]1[C@@H](O)[C@H](O)[C@@H](O)CN1CCCCCC1(O)CCCCC1` [OSL95-II, N-pentyl-(1-hydroxycyclohexyl)-DNJ, reference compound], for which the concentration for a half-maximal effect (EC50) in data set [2] (read-out: DV EC50) is 4000 nM; in data set [2] (read-out: Dengue EC50), 4000 nM; in the data set with HCV it was 6 µM; with Ebola (Zaire strain), 0.6 µM; in data set [5] it was 29000 nM; in [6], 750 nM. For the same molecule, the EC50 with BVDV (NADL strain) [1] is 10.9 ± 2.7 µM; in data set [8] (read-out: WNV EC50) it was 4.5 µM; in data set [8] (read-out: West Nile EC50), 4.5 µM. Further, the EC90 in data set [2] (read-out: DV EC90) was 8700 nM; in data set [2] (read-out: Dengue EC90), 8700 nM; in the data set with HCV it was 125 µM; in the data set with Ebola (Zaire strain) it was 8 µM; in [5], above 100 µM; in data set [6] it was 68 µM. Besides, in the data set with BVDV (NADL strain) [1], the EC90 was above 100 µM. Moreover, the 50% cytotoxic concentration (CC50) in data set [3] is above 500 µM; in the data set on vero cells, above 500 µM; in the data set with BHK cells (setting [10]), above 100 µM; in the data set with BHK cells (setting [11]) it was above 100 µM; in the data set with MDBK cells, above 500 µM.
For the molecule `CC(C)[C@@H]1CC[C@@H](C)C[C@H]1OCCCCCCN1C[C@H](O)[C@@H](O)[C@H](O)[C@H]1CO` [PBDNJ0801], the EC50 came out at 100 nM in [2] (read-out: DV EC50); 100 nM in data set [2] (read-out: Dengue EC50); 1.6 ± 1.2 µM in the data set with BVDV (NADL strain) [1]; 4.75 µM in data set [8] (read-out: WNV EC50); 4.75 µM in [8] (read-out: West Nile EC50). For the same molecule, the EC90 in data set [2] (read-out: DV EC90) was found to be 200 nM; in [2] (read-out: Dengue EC90) it was 200 nM; in the data set with BVDV (NADL strain) [1] it was 14.8 ± 3.9 µM; in data set [8] (read-out: WNV EC90) it was 19 µM; in data set [8] (read-out: West Nile EC90) it was 19 µM. Further, the CC50 in the data set with BHK cells (setting [10]) worked out at 80 µM; in the data set with BHK cells (setting [11]), 70 µM; with MDBK cells, 235 ± 21 µM.
As to `Cc1ccc(C)c(OCCCCCCN2C[C@H](O)[C@@H](O)[C@H](O)[C@H]2CO)c1` [PBDNJ0803], the EC50 in data set [2] (read-out: DV EC50) was 100 nM; in [2] (read-out: Dengue EC50), 100 nM; in [5] it was 2000 nM; in data set [6], 500 nM; in the data set on BVDV (NADL strain) [1], 3.7 ± 3.8 µM; in [8] (read-out: WNV EC50) it was 1.5 µM. The half-maximal effective concentration (EC50) in data set [8] (read-out: West Nile EC50) worked out at 1.5 µM. The EC90 in data set [2] (read-out: DV EC90) was found to be 600 nM; in [2] (read-out: Dengue EC90) it was 600 nM; in data set [5], 75 µM; in [6] it was 2 µM; in the data set with BVDV (NADL strain) [1] it was 29.2 ± 29 µM; in data set [8] (read-out: WNV EC90), 20 µM. The EC90 in data set [8] (read-out: West Nile EC90) is 20 µM. In addition, the 50% cytotoxic concentration (CC50) with vero cells was 300 µM; in the data set with BHK cells (setting [10]), 85 µM; in the data set on BHK cells (setting [11]) it was 75 µM; with MDBK cells, 485 ± 21 µM. Further, the “antiviral activity against Junin virus infection” value in data set [6] was “most potent”.
`C[C@@H]1CCCCC1OCCCCCCN1C[C@H](O)[C@@H](O)[C@H](O)[C@H]1CO` (stereo partly shown) [PBDNJ0804]: the EC50 in data set [2] (read-out: DV EC50) was 75 nM; in [2] (read-out: Dengue EC50), 80 nM; in the data set on Ebola (Zaire strain), 0.5 µM; in [5], 1500 nM; in data set [6] it was 450 nM; in the data set with BVDV (NADL strain) [1], 3 ± 1.4 µM. Also, the EC50 in [8] (read-out: WNV EC50) and in [8] (read-out: West Nile EC50) was 3.5 µM each time. Moreover, the EC90 in data set [2] (read-out: DV EC90) is 600 nM; in data set [2] (read-out: Dengue EC90), 600 nM; with Ebola (Zaire strain) it was 5 µM; in data set [5] it was 50 µM; in data set [6] it was 0.9 µM; with BVDV (NADL strain) [1], 13 ± 1.7 µM. Moreover, the 90% effect concentration (EC90) in data set [8] (read-out: WNV EC90) and in [8] (read-out: West Nile EC90) was 33 µM in each case. For the same molecule, the CC50 in the data set on vero cells was 500 µM; with BHK cells (setting [10]), 65 µM; with BHK cells (setting [11]) it was 70 µM; with MDBK cells it was above 500 µM. For the same molecule, the “antiviral activity against Junin virus infection” value in data set [6] is “most potent”.

The record behind these values is patent publication US9040488B2, “Imino sugar derivatives demonstrate potent antiviral activity and reduced toxicity” (Baruch S. Blumberg Institute, priority 2008, dated 2015).
